Here are results for three compounds from patent publication US20110098325A1, “PYRIDINE BENZAMIDES AND PYRAZINE BENZAMIDES USED AS PKD INHIBITORS” (CANCER RESEARCH TECHNOLOGY LIMITED, priority 2006, published 2011).

Values joined by “and” are separate entries in the source; they are usually repeats but may differ in a detail not shown here. Equal entries are not always repeated. Some results are limits rather than exact numbers.

The test concerns the target T1, Murine PKD1 kinase domain (Mus musculus, UniProt Q62101).
T1 construct: hexahistidine (pFastBac HTb leader) (N); made in house; host or cells: Sf9 insect cells, baculovirus (Bac-to-Bac HT, pFastBac HTb)
T1 sequence (Q62101 with tags, fused parts or gaps R683W): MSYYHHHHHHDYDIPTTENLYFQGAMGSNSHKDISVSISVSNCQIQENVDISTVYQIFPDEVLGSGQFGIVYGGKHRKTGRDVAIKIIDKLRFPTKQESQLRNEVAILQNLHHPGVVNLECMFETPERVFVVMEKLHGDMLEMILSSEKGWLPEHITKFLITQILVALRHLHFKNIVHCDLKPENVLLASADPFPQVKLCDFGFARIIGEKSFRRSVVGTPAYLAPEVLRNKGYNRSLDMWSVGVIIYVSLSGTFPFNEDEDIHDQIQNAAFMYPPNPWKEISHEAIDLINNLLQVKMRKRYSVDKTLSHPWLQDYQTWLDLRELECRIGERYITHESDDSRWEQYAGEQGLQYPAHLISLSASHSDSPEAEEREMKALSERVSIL
As to the kind of experiment: PKD1 (Murine Kinase Domain) Enzyme Activity Assay (IMAP fluorescence polarisation). It counts as biochemical. The following applies: 10 μM ATP, 60 minutes, room temperature. In general terms: Polarisation of emitted light reports the rotation of a fluorescent probe.
Consider `COc1cc(-c2cc(-c3cccc(C(=O)NCCN(C)C)c3)cnc2N)ccc1O` [Y-059, 3-[6-Amino-5-(4-hydroxy-3-methoxy-phenyl)-pyridin-3-yl]-N-(2-dimethylamino-ethyl)-benzamide], for which the 50% inhibitory concentration (IC50) (usually the point on the concentration scale where inhibition reaches its midpoint) was < 1000 nM and 8.5 nM.
With `COc1cc(-c2nc(-c3cccc(C(=O)NCCN(C)C)c3)cnc2N)ccc1O` [X-017, 3-[5-Amino-6-(4-hydroxy-3-methoxy-phenyl)-pyrazin-2-yl]-N-(2-dimethylamino-ethyl)-benzamide], the concentration for half-maximal inhibition (IC50) was < 1000 nM and 12 nM.
In the case of `COc1cc(-c2cncc(-c3cccc(C(=O)NCCN(C)C)c3)n2)ccc1O` [X-007, N-(2-Dimethylamino-ethyl)-3-[6-(4-hydroxy-3-methoxy-phenyl)-pyrazin-2-yl]-benzamide] it was less than 1000 nM.
